Measurements published in publication PMC3619390 (Journal of medicinal chemistry, 2012).
Values belong to the compound of their own block, whether it stands above or below them.

How the values were obtained:
[1] = test system: HR repair in HEK293 cells; test: HR repair efficiency, DR-GFP reporter; format: cell-based, human; details: 24 hours
[2] = test system: single-strand annealing (SSA) in HEK293 cells; test: SSA repair efficiency, SA-GFP reporter; format: cell-based, human; details: 24 hours
human RAD51 protein [3] = target: T1, human RAD51 protein (Homo sapiens, UniProt Q06609); test: FP-based DNA binding assay; details: compound 59 μM, 0.23 μM RAD51 (Figure 2B)
T1 sequence (Q06609 1-339): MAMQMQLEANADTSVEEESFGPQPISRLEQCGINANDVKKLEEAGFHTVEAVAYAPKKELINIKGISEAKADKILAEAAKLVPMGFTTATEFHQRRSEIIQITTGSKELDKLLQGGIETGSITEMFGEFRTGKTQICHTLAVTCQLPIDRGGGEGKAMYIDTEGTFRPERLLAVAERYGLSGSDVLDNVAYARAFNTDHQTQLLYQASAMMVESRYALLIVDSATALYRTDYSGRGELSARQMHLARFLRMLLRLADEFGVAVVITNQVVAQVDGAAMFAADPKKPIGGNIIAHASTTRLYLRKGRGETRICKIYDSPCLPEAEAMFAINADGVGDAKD

HEK293 cells = test: Sensitization of cells to MMC; format: cell-based, human; details: HEK293, varying MMC 24 hours then compound 24 hours (Figure 4)
[4] = Glutathione stability / reactivity experiment; format: physicochemical; details: 37 °C, DMSO, five-fold molar excess of glutathione, HPLC, up to 24 hours
human cells [5] = details: requires long (>10 hour) pre-incubation of cells with compound; cited from earlier work
human RAD51 protein [6] = target: T1, human RAD51 protein; test: DNA binding competition; details: 10 μM compound prior to washing (Figure 2C)
human cells [7] = details: cited from earlier work
[8] = 60 μM, compared with 1 at 20 μM

reactivity with glutathione [4]: no reactivity
SMILES: COc1ccc(C2=C(N3CCOCC3)C(=O)N(c3ccc(Cl)c(Cl)c3)C2=O)cc1 [7a, 1-(3,4-dichlorophenyl)-3-(4-methoxyphenyl)-4-morpholino-1H-pyrrole-2,5-dione]
effect on HR efficiency [1, 8]: very similar effects
effect on SSA efficiency [2, 8]: very similar effects
time dependence of inhibition of RAD51 DNA binding activity (human RAD51 protein [3]): did not observe any time-dependent increase
sensitization of cells to MMC (HEK293 cells): significant sensitization of cells

SMILES: O=c1c2ccccc2nc(/C=C/c2cccnc2)n1Cc1ccccc1 [B02]
sensitization of cells to cross-linking chemotherapeutic drugs (human cells [5]): does successfully sensitize cells

RAD51 DNA binding activity after compound treatment on beads and washing (human RAD51 protein [6]): significantly inactivated
time dependence of inhibition of RAD51 DNA binding activity (human RAD51 protein [3]): time-dependent
SMILES: O=C1C(Cl)=C(N2CCOCC2)C(=O)N1c1ccc(Cl)c(Cl)c1 [compound 1]
effect on HR efficiency ([1]; 20 μM): inhibition of HR
effect on SSA efficiency ([2]; 20 μM): stimulation of SSA
sensitization of cells to MMC (HEK293 cells): significant sensitization of cells

SMILES: C[C@@]12CCC(=O)c3coc(c31)C(=O)c1cc3c(cc12)C(=O)C=CC3=O [halenaquinone]
sensitization of cells to ionizing radiation (human cells [7]): not capable of sensitizing cells to ionizing radiation
